# Measured values as given in publication PMC9668969 (Nature Communications, 2022).
# Values joined by “and” are separate entries in the source; they are usually repeats but may differ in a detail not shown here. Identical values can stand only once.
# Tested on: WT ELIC
# Experiment: Asymmetric liposome stopped-flow Tl+ flux assay (no exchange vs exchange, 25 mol% outer leaflet POPG)
# Format: biochemical, Erwinia chrysanthemi
# Parameters: key to Tl+ flux quenching rate, Avg. / Tl+ flux quenching rate: Tl+ influx rate kt at 2 ms from stretched-exponential fit (Eq. 2b)
# Settings: for Tl+ flux quenching rate, Avg. / Tl+ flux quenching rate: Exchange: WT in 3:1 PC:PE, 25% POPG in outer leaflet by beta-CD; for Tl+ flux quenching rate: single experiments
# Procedure: The fluorescence sequential-mixing stopped-flow liposomal flux measurements were carried using an SX20 stopped-flow spectrofluorometer (Applied Photophysics) and Pro-Data SX software[13],[30]. 7.5 mg of the respective lipid mixture (POPC, 1:1 POPC: POPE, 1:1 POPC:POPG, 3:1 POPC:POPE, 3:1 POPC:POPG, 2:1:1 POPC:POPE:POPG) was dried in a glass vial to a thin film under a constant stream of N2. The lipids were then further dried under vacuum in a desiccator overnight. The following day the lipids were hydrated in 500 µl of reconstitution buffer (100 mM NaNO3, 10 mM HEPES, pH 7) (Buffer R), 250 µl of 75 mM 8-Aminonaphthalene-1,3,6-Trisulfonic Acid (ANTS, ThermoFisher Scientific) in buffer R, and doped with ~18 mg of CHAPS (Anatrace). The mixture was vortexed and then sonicated with heat until completely solubilized. Following the sonication, the solution was brought to RT then 3.5 µl of 6.7 mg/ml ELIC in Buffer A with 0.02% DDM was added (3 µg per mg of lipid). This combined solution was incubated at RT for 30 min, followed by the addition of 1 ml of 1:1 v/v SM-2 BioBeads in Buffer R and an additional 250 µl of 75 mM ANTS in Buffer R. This mixture was incubated at RT for 2.5 hr with gentle mixing. The liposome suspension was then extruded with an Avanti mini-extruder and 0.1 µm membrane (30×). The extruded liposomes were stored at 13 °C overnight with gentle rotation. The next day, the liposomes were diluted to 2.5 mL using assay buffer (140 mM NaNO3, 10 mM HEPES, pH 7) (Stopped-flow Buffer A), loaded into a PD-10 desalting column (Cytiva), eluted with 3 mL of Stopped-flow Buffer A and subsequently diluted 5-fold with Stopped-flow Buffer A.
# Using propylamine as the agonist, the assay and analysis was carried out as previously described[13],[30]. ELIC-containing liposomes were first mixed 1:1 with Buffer A containing 2× the concentration of propylamine. After a variable delay of 10 ms to 25 s, the sample was then mixed 1:1 with a quenching buffer (90 mM NaNO3, 50 mM TlNO3, 10 mM HEPES, pH 7), and ANTS fluorescence (ex. 360 nm, fluorescence above 420 nm) was recorded for 1 s. For each delay time, 5 repeat measurements were obtained. The data were collected using Applied Photophysics Pro-Data SX software. The fluorescence quenching traces were fit to a stretched exponential (Eq. 2a) and the rate of Tl^+ influx was determined at 2 ms (Eq. 2b).2a Ft=F∞+F0−F∞⋅e^−t/τ^β 2b kt=β/τ⋅2ms/τ^(β−1) where Ft, F∞, F0 are the fluorescence at time t, final fluorescence and initial fluorescence. τ is the time constant, β the stretched exponential factor, and kt the calculated rate of Tl^+ influx at 2 ms. The time course of desensitization was also fit to a double exponential and a weighted time constant was calculated as was done for the patch-clamp data using Origin 2019b. All replicates were taken from independent samples.
# Acceptor liposomes were prepared as described in the Stopped-flow fluorescence recordings section until completion of the extrusion step. The preparation was scaled up 2x to produce samples for the no-exchange and exchange conditions. After extrusion and storage of the liposomes overnight at 13 °C, the double liposome preparation was split into two equal volume aliquots of ~1.5 ml. Using the excel spreadsheet provided by Markones et al.[44], donor POPG and methyl-β-cyclodextrin (MβCD, Sigma) concentrations and volumes were calculated to produce an outer leaflet POPG content of 25 mol% in the liposomes. The calculations assumed a ~6.66 mM lipid concentration and 1.5 mL volume of the acceptor liposome solution[44]. A MβCD-POPG (50% saturation of MβCD by POPG) solution was formed by combining 224 µL 7.5 mM POPG in Stopped-flow Buffer A, 650 µl 300 mM MβCD in Stopped-flow Buffer A, and 126 µL Stopped-flow Buffer A, which was then mixed at 50 °C and 1000 RPM for 20 min using an Eppendorf thermomixer. […]
# [1] = 25 mol% in outer leaflet, 10 mM propylamine
# [2] = 10 mM propylamine, delay 0.01 s
# [3] = 10 mM propylamine, delay 0.05 s
# [4] = 10 mM propylamine, delay 0.25 s
structure (smiles),measurement,setting,value
"CCCCCCCC/C=C\CCCCCCCC(=O)OC(COC(=O)CCCCCCCCCCCCCCC)COP(=O)(O)OCC(O)CO (stereo not drawn) [POPG, 1-palmitoyl-2-oleoyl-phosphatidylglycerol]",time constant of desensitization,25% POPG introduced to the outer leaflet,~ 6 s
same,effect on peak agonist response,[1],increased the peak agonist response approximately two-fold
same,effect on rate of desensitization,[1],reduced the rate of desensitization
same,"Tl+ flux quenching rate, Avg.",[2],18.3739
same,"Tl+ flux quenching rate, Avg.","10 mM propylamine, delay 0.025 s",13.1397
same,"Tl+ flux quenching rate, Avg.",[3],28.9905
same,"Tl+ flux quenching rate, Avg.","10 mM propylamine, delay 0.1 s",40.2879
same,"Tl+ flux quenching rate, Avg.",[4],49.694
same,"Tl+ flux quenching rate, Avg.","10 mM propylamine, delay 0.5 s",74.7874
same,"Tl+ flux quenching rate, Avg.","10 mM propylamine, delay 1 s",70.2446
same,"Tl+ flux quenching rate, Avg.","10 mM propylamine, delay 2.5 s",59.7249
same,"Tl+ flux quenching rate, Avg.","10 mM propylamine, delay 5 s",40.3668
same,"Tl+ flux quenching rate, Avg.","10 mM propylamine, delay 10 s",38.6421
same,"Tl+ flux quenching rate, Avg.","10 mM propylamine, delay 25 s",9.131
same,Tl+ flux quenching rate,[2],25.3857 and 14.5673 and 13.3121 and 20.2302
same,Tl+ flux quenching rate,[3],31.4624 and 22.583 and 30.1073 and 31.8092
same,Tl+ flux quenching rate,[4],55.8845 and 34.2232 and 67.362 and 41.3064
same,Tl+ flux quenching rate,"10 mM propylamine, delay 0.5 s",114.141 and 61.2513 and 65.8238 and 57.9331
